Read-outs that look alike come from different tables or passages of the source.
Experiments:
[1] = system: B.1.1.7 lineage SARS-CoV-2; assay: microbe, parasite or virus in culture; format: cell-based; details: Severe acute respiratory syndrome coronavirus 2, 96 h, read-out: A549-dual_ACE2_TMPRSS2 (EC50)
[2] = molecular target: T1, HRV3C (Human rhinovirus 14, UniProt P03303); assay: biochemical; design: species or system HRV; details: HRV3C, 30 mins preincubation, SAMDI-MS; read-out: HRV IC50 (bound)
T1 construct: 3CLpro and HRV3C was added using a Multidrop Combi

[3] = system: human beta-coronavirus OC43; assay: OC43 coronavirus antiviral assay in HeLa cells (cytopathic effect, cell-titer-glo); format: cell-based; details: Betacoronavirus 1, OC43, HeLa, 144 h, 6 days at 33° C.
[4] = system: SARS-CoV-2-GHB-03021/2020; format: cell-based; details: read-out: VeroE6 + CP (EC50)
[5] = molecular target: T2, SARS-Cov-2 3CLpro (Severe acute respiratory syndrome coronavirus 2, UniProt P0DTD1); assay: biochemical; details: 3CLpro, 30 mins preincubation, SAMDI-MS; read-out: SARS-Cov-2 IC50 (class)
T2 construct: 3CLpro and HRV3C was added using a Multidrop Combi

[6] = molecular target: T3, human cathepsin L (Homo sapiens, UniProt P07711); assay: Cathepsin L assay (Z-FR-AMC fluorescence); format: biochemical; details: 10 pM human cathepsin L, 30 mins preincubation, Z-FR-AMC 2 μM
T3 construct: purchased R&D Systems
Summary of the method: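 Human cathepsin L (10 pM) was preincubated 30 min with compound, then reactions were started with Z-FR-AMC substrate (2 μM final). AMC fluorescence (355/460 nm) was read every 2 min over 30 min. IC50 came from a four-parameter curve fit.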

T3 sequence (P07711 114-333): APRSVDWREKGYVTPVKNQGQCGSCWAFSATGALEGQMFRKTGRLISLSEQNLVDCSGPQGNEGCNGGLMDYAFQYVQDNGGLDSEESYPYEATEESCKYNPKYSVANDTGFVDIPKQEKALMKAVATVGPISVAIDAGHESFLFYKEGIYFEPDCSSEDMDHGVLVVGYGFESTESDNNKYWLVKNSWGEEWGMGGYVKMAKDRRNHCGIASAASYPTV
T1 sequence (P03303 1538-1719): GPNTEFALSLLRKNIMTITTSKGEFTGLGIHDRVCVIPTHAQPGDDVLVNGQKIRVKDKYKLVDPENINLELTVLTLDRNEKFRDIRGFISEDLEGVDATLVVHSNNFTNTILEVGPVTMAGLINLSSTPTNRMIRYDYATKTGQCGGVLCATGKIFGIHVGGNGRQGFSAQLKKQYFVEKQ

Row | Structure (SMILES) | EC50 [1] | IC50 [2] | EC50 ([3]; read-out: EC50 (class)) | EC50 [4] | IC50 [5] | IC50 [6] | EC50 ([3]; read-out: EC50 (bound)) | EC50 ([1]; […], numeric bounds given instead of class symbols)
1 | CC(C)(C)[C@H](NC(=O)C1(C2CC2)CC1)C(=O)N1C[C@H]2[C@@H]([C@H]1C(=O)N[C@H](C#N)C[C@@H]1CCNC1=O)[C@H]1C=C[C@@H]2C1 [Example 35, (1R,2S,3S,6R,7S)-4-[(2S)-2-{[1,1′-bi(cyclopropane)]-1-ylformamido}-3,3-dimethylbutanoyl]-N-[(1S)-1-cyano-2-[(3S)-2-oxopyrrolidin-3-yl]ethyl]-4-azatricyclo[5.2.1.0^{2,6}]dec-8-ene-3-carboxamide] | 1000 to 10000 nM | > 10000 nM | 100 to 1000 nM | 100 to 1000 nM | 20 to 200 nM | ≥ 10000 nM | – | –
2 | CC(C)(C)[C@H](NC(=O)C1COC1)C(=O)N1C[C@H]2[C@@H]([C@H]1C(=O)N[C@H](C#N)C[C@@H]1CCNC1=O)[C@H]1C=C[C@@H]2C1 [Example 36, (1R,2S,3S,6R,7S)—N-[(1S)-1-cyano-2-[(3S)-2-oxopyrrolidin-3-yl]ethyl]-4-[(2S)-3,3-dimethyl-2-(oxetan-3-ylformamido)butanoyl]-4-azatricyclo[5.2.1.0^{2,6}]dec-8-ene-3-carboxamide] | 1000 to 10000 nM | > 10000 nM | 100 to 1000 nM | 100 to 1000 nM | < 20 nM | ≥ 10000 nM | – | –
3 | CC(C)(C)[C@H](NC(=O)C(F)(F)F)C(=O)N1C[C@H]2[C@@H]([C@H]1C(=O)NC(C#N)CC1CCc3cnnn31)[C@H]1C=C[C@@H]2C1 (stereo partly drawn) [Example 37, (1R,2S,3S,6R,7S)—N-(1-cyano-2-{4H,5H,6H-pyrrolo[1,2-c][1,2,3]triazol-6-yl}ethyl)-4-[(2S)-3,3-dimethyl-2-(2,2,2-trifluoroacetamido)butanoyl]-4-azatricyclo[5.2.1.0^{2,6}]dec-8-ene-3-carboxamide] | 1000 to 10000 nM | > 10000 nM | – | 1000 to 10000 nM | 20 to 200 nM | ≥ 10000 nM | > 10000 nM | –
4 | CC(C)(C)[C@H](NC(=O)C(F)(F)Cl)C(=O)N1C[C@H]2[C@@H]([C@H]1C(=O)N[C@H](C#N)C[C@@H]1CCNC1=O)[C@H]1C=C[C@@H]2C1 [Example 39, (1R,2S,3S,6R,7S)-4-[(2S)-2-(2-chloro-2,2-difluoroacetamido)-3,3-dimethylbutanoyl]-N-[(1S)-1-cyano-2-[(3S)-2-oxopyrrolidin-3-yl]ethyl]-4-azatricyclo[5.2.1.0^{2,6}]dec-8-ene-3-carboxamide] | < 100 nM | > 10000 nM | < 100 nM | < 100 nM | < 20 nM | ≥ 10000 nM | – | –
5 | CC(C)(C)[C@H](NC(=O)C(F)(F)Cl)C(=O)N1C[C@@H]2[C@@H]3CC[C@@H](C3)[C@@H]2[C@H]1C(=O)N[C@H](C#N)C[C@@H]1CCNC1=O [Example 40, (1S,2S,3S,6R,7R)-4-[(2S)-2-(2-chloro-2,2-difluoroacetamido)-3,3-dimethylbutanoyl]-N-[(1S)-1-cyano-2-[(3S)-2-oxopyrrolidin-3-yl]ethyl]-4-azatricyclo[5.2.1.0^{2,6}]decane-3-carboxamide] | < 100 nM | > 10000 nM | < 100 nM | < 100 nM | < 20 nM | ≥ 10000 nM | – | –
6 | CC(C)(C)[C@H](NC(=O)C(F)(F)F)C(=O)N1C[C@@H]2[C@H]3C[C@@H]([C@@H]2[C@H]1C(=O)N[C@H](C#N)C[C@@H]1CCNC1=O)[C@H](O)C3 [Example 85, (1S,2R,3S,6R,7S,9R)—N-[(1S)-1-cyano-2-[(3S)-2-oxopyrrolidin-3-yl]ethyl]-4-[(2S)-3,3-dimethyl-2-(2,2,2-trifluoroacetamido)butanoyl]-9-hydroxy-4-azatricyclo[5.2.1.0^{2,6}]decane-3-carboxamide] | – | > 10000 nM | – | 10000 to 50000 nM | 200 to 2000 nM | ≥ 10000 nM | > 10000 nM | > 10000 nM

From patent US12252481B2, “Anti-viral compounds” (Aligos Therapeutics, Inc., priority 2021, dated 2025)
